Laboratory results as given in publication PMC10392676, “Structural basis of anti-SARS-CoV-2 activity of HCQ: specific binding to N protein to disrupt its interaction with nucleic acids and LLPS” (QRB Discovery, 2021).

Tests used:
[1] = molecular target: NTD of SARS-CoV-2 nucleocapsid (N) protein (Severe acute respiratory syndrome coronavirus 2, UniProt P0DTC9); test: 1H-15N HSQC NMR titration, […] MHz, one-site fit of chemical shift differences, average of […] residues; format: binding
[2] = molecular target: CTD of SARS-CoV-2 nucleocapsid (N) protein (Severe acute respiratory syndrome coronavirus 2, UniProt P0DTC9); test: as above; format: binding

CCN(CCO)CCCC(C)Nc1ccnc2cc(Cl)ccc12 (centres unmarked) [Hydroxychloroquine]
Kd [1]: 112 ± 32.2 µM
Kd [2]: 52.1 ± 17.6 µM
